Among the data in PMC12040169 (PLOS Biology, 2025) are viability values, retold here.

The nature of the series: in vitro. The settings on record: human, hela cells, % viability.

In the case of `Nc1cccc(-c2cc(Nc3ccc(CCO)cc3)ncn2)c1` [CBK090766], the viability (as a rule, a read-out of living cells in per cent, often relative to untreated cells) at 28.5 h, 10 µM was 104%. The figure for `CC(C)(C)OC(=O)N1CCC(Oc2ccccc2C#N)C1` (stereo not drawn) [CBK003039] is 84.9%; for `COc1ccccc1NC(=O)CCn1c(C(F)F)cc2cccnc21` [CBK285065] it is 99.2%. On to `Fc1ccc(-c2ccc(CNCc3ccncc3)o2)cc1` [CBK270158C], for which the viability at 28.5 h, 10 µM amounted to 92.7%. Then `c1ccc(CN2CCN(CCN3CCn4c3nc3ccccc34)CC2)cc1` [CBK265472B], with 97.5%. As to `Fc1cccc(-c2nccnc2NCCc2ccncc2)c1` [CBK036763], the viability at 28.5 h, 10 µM came to 95.8%. Then `CCC1(CC)C(=O)N=C(C(C)(C)C)NC1=O` [CBK076759], with 88.8%. As to `O=C(CCN1CCc2ccccc2C1)Nc1ccccc1F` [CBK264202], the viability at 28.5 h, 10 µM amounted to 94.9%. With `O=S(=O)(c1ccccc1)N1Cc2cccc3[nH]cc(c23)C1` [CBK153275], the viability at 28.5 h, 10 µM was 102%. As to `CCOc1cc(C=O)ccc1OCc1c(C)no[n+]1[O-]` [CBK263449], the viability at 28.5 h, 10 µM stood at 92.1%. Regarding `N#Cc1ccccc1CSCCNC(=O)c1ccc(NC(=O)c2ccco2)s1` [CBK296749], the viability at 28.5 h, 10 µM was 80.8%. The figure for `O=C(O)Cn1cc(I)c(=O)[nH]c1=O` [CBK262698] is 98.6%. The figure for `COc1ccc(CC(=O)Nc2ccc(OCC(=O)O)cc2)cc1` [CBK264244] is 103%; for `CCC(NC1CCc2nc(COC)nn2C1)C1CCC1` (stereo not drawn) [CBK304739] it is 87.8%; for `CCC(C)(C)c1ccc(S(=O)(=O)NCc2ccc(C(F)(F)F)cc2)cc1` [CBK044820] it is 107%. Take `c1ccc(-c2cn3ccnc3c(N3CCN(c4ccncc4)CC3)n2)cc1` [CBK066177]: the viability at 28.5 h, 10 µM is 110%.

On to `O=C(CCc1ccncc1)N1CCCCC1CN1CCCCCC1` (stereo not drawn) [CBK282102], for which the viability at 28.5 h, 10 µM stood at 99.6%. For the compound `Cc1cc(C)cc(NC(=O)C2C3C=CC(O3)C2C(=O)O)c1` (stereo not drawn) [CBK262642], the viability at 28.5 h, 10 µM is 95.3%. Consider `CCCCN1CCN(S(=O)(=O)c2ccc(Br)cc2)CC1` [CBK144055], for which the viability at 28.5 h, 10 µM is 99.1%. As to `Nc1nc2n(c1C(=O)c1ccc(Cl)cc1)CCC2` [CBK288194], the viability at 28.5 h, 10 µM was found to be 92.5%. As to `c1ccc2c(c1)ccn2Cc1ccc(-c2nccnc2-c2nnn[nH]2)cc1` [CBK050821], the viability at 28.5 h, 10 µM amounted to 107%.

Consider `O=S(=O)(Nc1nccnc1N1CCN(c2ccccc2)CC1)c1ccc(F)cc1` [CBK048706], for which the viability at 28.5 h, 10 µM came out at 94.2%. With `O=[N+]([O-])c1ccc(/C=N/c2cccc(-c3nc4ccccc4s3)c2)cc1` [CBK293918], the viability at 28.5 h, 10 µM came out at 91.4%. Regarding `Cc1ccn2c(NS(=O)(=O)c3ccc(CCC(=O)O)cc3)c(-c3cccs3)nc2c1` [CBK297480], the viability at 28.5 h, 10 µM is 110%. Turning to `O=S(=O)(c1ccc(C(F)(F)F)cc1Cl)N1CCCN(Cc2ccnc3ccccc23)CC1` [CBK062942], the viability at 28.5 h, 10 µM worked out at 101%.

In the case of `O=C(O)C[C@@H]1CCN(C(=O)NCc2ccccc2)C[C@@H]1CC1=NCCc2ccccc21` [CBK289161], the viability at 28.5 h, 10 µM is 94.7%.

As to `O=C(Cn1cccc2cc(C3CCCNC3)nc1-2)NC1CCCC1` (stereo not drawn) [CBK285015], the viability at 28.5 h, 10 µM was 95.5%. Take `O=C(NCc1ccccc1)[C@H]1CN2CCC1C[C@@H]2Cn1cc(-c2ccc(F)cc2)nn1` (stereo partly drawn) [CBK288736]: the viability at 28.5 h, 10 µM came to 87%. As for `O=C(CSc1ccc(Cl)cc1)Nc1cccc2nsnc12` [CBK267936], the viability at 28.5 h, 10 µM was 90.8%. The figure for `O=C(C1CC2C=CC1C21CC1)N1CCC(Oc2ccccc2F)CC1` (stereo not drawn) [CBK282179] is 103%. In the case of `CCc1[nH]c2ccc(C(=O)NCCn3ccnc3C)cc2c1C` [CBK282505], the viability at 28.5 h, 10 µM was 96.4%.

With `COCCCNC(=O)Cn1cnc2sc(C)cc2c1=O` [CBK071899], the viability at 28.5 h, 10 µM was 102%. Then `CCOC(=O)C1CCCN(CCC(=O)Nc2cc(C)ccc2C)C1` (stereo not drawn) [CBK264287C], with 95.7%. With `C(=C\c1ccccc1)/CNCCCN1CCOCC1` [CBK278195C], the viability at 28.5 h, 10 µM was determined as 105%. Take `COc1ccc(-c2nc(NC(=O)c3ccc(S(N)(=O)=O)cc3)cnc2-c2cccc(C)c2)cc1` [CBK037559]: the viability at 28.5 h, 10 µM is 103%.

As to `Cc1c(C(=O)Nc2cccc(C(F)(F)F)c2)sc2nc(-c3ccccc3)cn12` [CBK294408], the viability at 28.5 h, 10 µM is 87.9%. In the case of `CCCCn1c(CSc2ncccc2C(=O)O)nc2cc(S(=O)(=O)N3CCOCC3)ccc21` [CBK297558], the viability at 28.5 h, 10 µM is 84.1%. Then `CCCCC(=O)Nc1ccc(S(N)(=O)=O)cc1` [CBK288490], with 113%.

With `COc1cccc(Oc2nccnc2-c2cccs2)c1` [CBK107059], the viability at 28.5 h, 10 µM came to 91.6%. For the compound `FC(F)(F)c1ccnc(OCCOc2ccc(Cl)cc2)n1` [CBK115838], the viability at 28.5 h, 10 µM is 90.8%. On to `O=C(Nc1ccccc1C(=O)N1CCOCC1)C1CCN(C(=O)c2ccco2)CC1` [CBK270272], for which the viability at 28.5 h, 10 µM came to 105%. Then `CCOc1ccc(C(N)CC(=O)O)cc1` (stereo not drawn) [CBK262933C], with 82.4%; and `COc1ccc(S(=O)(=O)N2Cc3ccccc3CC2C(=O)Nc2sc3c(c2C#N)CCCC3)cc1` (stereo not drawn) [CBK266363], with 116%; and `Nc1cc(N)nc(SCC(=O)Nc2ccc(Oc3ccccc3)cc2)n1` [CBK266749], with 95%. Then `COc1ccc(C(CC(=O)O)C(=O)O)cc1OC` (stereo not drawn) [CBK261943], with 90.4%; and `N#Cc1cccc(CN2C[C@H](O)C[C@H]2c2nc(-c3ccc4c(c3)OCO4)no2)c1` [CBK288866], with 90%; and `CCOC(=O)C1CCN(S(=O)(=O)c2ccc(NC(C)=O)c(Cl)c2)CC1` [CBK043748], with 93.5%. Then `Cc1cc(N(C)C)nc(SCc2n[nH]c(=S)o2)n1` [CBK006887], with 99.8%; and `O=C1CC2(CCN(C(=O)C3CCOC3)CC2)Oc2c(Br)cc(Br)cc21` (stereo not drawn) [CBK156512], with 96.4%. Regarding `O=C(CSc1nnc(-c2ccncc2)n1-c1ccccc1)N1CCN(Cc2ccccc2)CC1` [CBK267240], the viability at 28.5 h, 10 µM was determined as 105%. In the case of `O=C(O)C1CCN(C(=O)NCCOc2ccccc2)CC1` [CBK156072], the viability at 28.5 h, 10 µM is 82.2%.

Turning to `Cc1c(Cl)cccc1S(=O)(=O)Nc1nc(CSc2ccccn2)ns1` [CBK200054], the viability at 28.5 h, 10 µM is 97.2%. Take `O=C(CCN1CCN(C(c2ccccc2)c2ccccc2)CC1)c1ccccc1` [CBK074788]: the viability at 28.5 h, 10 µM is 111%. `O=C(Nc1ccccc1C(F)(F)F)N1CCN(c2ccccc2Cl)CC1` [CBK045081]: the viability at 28.5 h, 10 µM came out at 79.7%.

For the compound `Cn1c(=O)oc2cc(Br)ccc21` [CBK027375], the viability at 28.5 h, 10 µM came to 108%. Regarding `c1ccc(CCCN2CCN(Cc3ccccn3)CC2)cc1` [CBK263461G], the viability at 28.5 h, 10 µM is 91.6%. `O=C(O)CCSc1nc(-c2ccccc2)cc(=O)[nH]1` [CBK287076]: the viability at 28.5 h, 10 µM amounted to 102%. With `COc1ccc(C(C)C)cc1-c1cnc2[nH]c(=O)n([C@H](C)c3ccccc3)c2n1` [CBK064181], the viability at 28.5 h, 10 µM was 87.3%. In the case of `COc1ccc2sc(C)[n+](CCC(=O)O)c2c1` [CBK260899B], the viability at 28.5 h, 10 µM came out at 83.5%. `CC(=O)Nc1ccc(S(=O)(=O)NCCCc2ccccc2)cc1` [CBK265488]: the viability at 28.5 h, 10 µM worked out at 89.8%. In the case of `CN(C)CC(=O)N1CCN(c2ccc(C(=O)c3ccccc3)cc2[N+](=O)[O-])CC1` [CBK296699], the viability at 28.5 h, 10 µM was determined as 85.4%. On to `O=C1NN=C(c2ccccc2)CC1c1c[nH]c2ccccc12` (stereo not drawn) [CBK288235], for which the viability at 28.5 h, 10 µM was found to be 104%. For `CCc1nn2c(=O)cc(CNc3ccc4c(c3)OCCO4)nc2s1` [CBK297787], the viability at 28.5 h, 10 µM stood at 99.2%. With `CCOC(=O)c1c(CN(C)C)n(-c2ccccc2)c2cc(Br)c(O)cc12` [CBK261309C], the viability at 28.5 h, 10 µM came out at 83.4%. In the case of `COc1cc(/C=N/Nc2nc(Nc3ccccc3)nc(Nc3ccccc3)n2)ccc1O` [CBK262584], the viability at 28.5 h, 10 µM was determined as 84.9%. Then `COc1cc(CN2CCN(C(=O)c3ccccc3)CC2)cc(OC)c1O` [CBK263462], with 94.3%.

`O=C(O)C1CCCCN1S(=O)(=O)c1ccc(Br)cc1` (stereo not drawn) [CBK101789]: the viability at 28.5 h, 10 µM was 88.6%. In the case of `CCc1nc(N)nc(N2CCCC3(CN(C)C(=O)O3)C2)c1C` (stereo not drawn) [CBK306914], the viability at 28.5 h, 10 µM amounted to 86.9%. `Cc1ccc(S(=O)(=O)NC(C)C(=O)Nc2cc(C(F)(F)F)ccc2Cl)cc1` (stereo not drawn) [CBK266546]: the viability at 28.5 h, 10 µM is 109%. On to `CC(=O)c1ccc(-c2cc(N3CCN(CCN4CCCC4)CC3)ncn2)s1` [CBK091169], for which the viability at 28.5 h, 10 µM is 98.8%. `C=CCN1C(=O)CC2(C1=O)C(=O)N(CCn1cnc3c1c(=O)n(C)c(=O)n3C)c1ccc(Cl)cc12` (stereo not drawn) [CBK075410]: the viability at 28.5 h, 10 µM turned out to be 94.8%. With `CC[C@@H]1CCCCN1C(=O)c1sc2nc(C(C)=O)ccc2c1Cl` [CBK091036], the viability at 28.5 h, 10 µM stood at 88.1%. In the case of `Fc1ccc(-c2nccnc2NCc2ccncc2)cc1` [CBK088964], the viability at 28.5 h, 10 µM worked out at 98.8%. For `CCn1c2cc(C)sc2c2cnn(CC(=O)N3CCCC3)c(=O)c21` [CBK284168], the viability at 28.5 h, 10 µM turned out to be 99.8%. In the case of `Cc1csc(NC(=O)CN2CCOC(c3ccc(F)cc3)C2)n1` (stereo not drawn) [CBK304703], the viability at 28.5 h, 10 µM came out at 116%. Take `CN(C)C(=O)c1cccc(NC(=O)C2CCCCC2)c1` [CBK304515]: the viability at 28.5 h, 10 µM stood at 89.7%.

As for `O=C(O)c1cccc(-n2cc(-c3ccc(F)cc3F)nn2)c1` [CBK112998], the viability at 28.5 h, 10 µM was 95.9%. Then `CC(=O)OC(c1ccccc1)c1nc2ccccc2[nH]1` (stereo not drawn) [CBK110141], with 97.1%; and `COc1ccc(OCC(=O)N/N=C\c2c(OC)ccc3ccccc23)c(Br)c1` [CBK261235], with 86.3%; and `O=C(O)Cn1c2ccc(Br)cc2c2nc3ccccc3nc21` [CBK266416], with 97.1%.

Regarding `COc1ccccc1C1(O)CCN(Cc2ccccc2OCc2ccc3c(c2)OCO3)CC1` [CBK286337], the viability at 28.5 h, 10 µM amounted to 80.4%.
